In the supplement of paper PMC10883282:

How the values were obtained:
Assay in all cases: standardised AUC of viability dose-response curve (72 h) (fraction (0-1)); higher = less growth inhibition (more resistant)
SK-LMS-1 = system: SK-LMS-1
Method in brief: (§1)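 Sarcoma cell lines in 384-well plates were treated in triplicate for 72 h with 2.5 µl of a compound dilution series, made in 1:3 steps from 10 mM to 0.0002 mM on the compound plate. ATPLite viability was scaled from 1 (full) to 0 (none) and fitted per drug and cell line with a four-parameter log-logistic model. The values are standardised areas under the dose-response curve in log-dose space, from a modified drexplorer computeAUC. On that scale, 1 means no response and 0 means full response.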

SW684 = system: SW684
Method in brief: as §1

RD = system: RD
Method in brief: as §1

SK-ES-1 = system: SK-ES-1
Method in brief: as §1

KHOS-240S = system: KHOS-240S
Method in brief: as §1

HT1080 = system: HT1080
Method in brief: as §1

SYO-1 = system: SYO-1
Method in brief: as §1

G401 = system: G401
Method in brief: as §1

VA-ES-BJ = system: VA-ES-BJ
Method in brief: as §1

SW982 = system: SW982
Method in brief: as §1

SW872 = system: SW872
Method in brief: as §1

MES-SA = system: MES-SA
Method in brief: as §1

KHOS-NP = system: KHOS-NP
Method in brief: as §1

SW1353 = system: SW1353
Method in brief: as §1

RD-ES = system: RD-ES
Method in brief: as §1

A204 = system: A204
Method in brief: as §1

HS729 = system: HS729
Method in brief: as §1

Structure (SMILES)	standardised AUC (SK-LMS-1)	standardised AUC (SW684)	standardised AUC (RD)	standardised AUC (SK-ES-1)	standardised AUC (KHOS-240S)	standardised AUC (HT1080)	standardised AUC (SYO-1)	standardised AUC (G401)	standardised AUC (VA-ES-BJ)	standardised AUC (SW982)	standardised AUC (SW872)	standardised AUC (MES-SA)	standardised AUC (KHOS-NP)	standardised AUC (SW1353)	standardised AUC (RD-ES)	standardised AUC (A204)	standardised AUC (HS729)
CC[C@@H]1CN(C(=O)NCC(F)(F)F)C[C@@H]1c1cnc2cnc3[nH]ccc3n12 [UPADACITINIB]	0.974	0.984	0.993	0.988	0.956	0.976	0.913	0.961	0.962	0.979	0.951	0.977	0.975	0.945	0.994	0.97	0.915
CN1CC[C@@H](NC(=O)Nc2ccc(C#N)cc2)C[C@@H]1c1nc2ccccc2[nH]1 [GLASDEGIB]	0.982	0.99	0.987	0.953	0.991	0.988	0.976	0.976	0.984	0.991	0.988	0.976	0.992	0.988	0.959	0.982	0.985
COC(=O)[C@@]1(O)C[C@H]2O[C@]1(C)n1c3ccccc3c3c4c(c5c6ccccc6n2c5c31)C(=O)NC4 [K-252A]	0.666	0.774	0.81	0.543	0.717	0.818	0.668	0.745	0.7	0.628	0.68	0.631	0.776	0.766	0.647	0.617	0.756
Clc1ccc(Nc2nnc(Cc3ccncc3)c3ccccc23)cc1 [VATALANIB]	0.975	0.988	0.995	0.998	0.978	1	0.937	0.971	1	0.997	0.994	0.998	1	0.979	0.99	0.864	0.989
Cc1cc2cc(Oc3ccnc(Nc4cccc(CS(=O)(=O)NCCN(C)C)c4)n3)ccc2[nH]1 [SULFATINIB]	0.965	0.966	0.964	0.955	0.931	0.99	0.759	0.909	0.987	0.924	0.96	0.95	0.982	0.97	0.962	0.805	0.874
CC(C)Oc1ccc(-c2nn([C@@H](C)c3oc4ccc(F)cc4c(=O)c3-c3cccc(F)c3)c3ncnc(N)c23)cc1F [UMBRALISIB]	0.966	0.937	0.998	0.985	0.983	0.984	0.97	0.983	0.982	1	0.987	0.989	0.994	0.949	0.993	0.969	0.939
O=c1sn(-c2cccc3ccccc23)c(=O)n1Cc1ccccc1 [TIDEGLUSIB]	0.99	0.964	0.996	0.975	0.983	0.999	0.962	0.951	0.972	0.993	0.976	0.971	0.99	0.966	0.985	0.994	0.913
COC(=O)N[C@@H](C)CNc1nccc(-c2cn(C(C)C)nc2-c2cc(Cl)cc(NS(C)(=O)=O)c2F)n1 [ENCORAFENIB]	0.887	0.961	0.896	0.843	0.956	0.933	0.977	0.922	0.923	0.818	0.665	0.9	0.903	0.941	0.903	0.922	0.925
Cn1ncnc1[C@H]1c2n[nH]c(=O)c3cc(F)cc(c23)N[C@@H]1c1ccc(F)cc1 [TALAZOPARIB]	0.905	0.956	0.832	0.376	0.86	0.83	0.48	0.817	0.725	0.749	0.826	0.675	0.919	0.836	0.433	0.79	0.936
CC1(C)CC=C(c2nc(C3CC(C)(C)OC(C)(C)C3)ccc2NC(=O)c2nc(C#N)c[nH]2)CC1 [EDICOTINIB]	0.99	1	0.984	0.976	0.987	0.984	1	0.987	0.991	1	1	0.971	0.994	1	0.994	0.985	0.931
COc1cc(OC)c(/C=C/S(=O)(=O)Cc2ccc(OC)c(NCC(=O)O)c2)c(OC)c1 [RIGOSERTIB]	0.719	0.851	0.712	0.584	0.636	0.707	0.827	0.852	0.755	0.748	0.854	0.681	0.805	0.822	0.644	0.779	0.882
O=C(Nc1ccc(OC(F)(F)Cl)cc1)c1cnc(N2CC[C@@H](O)C2)c(-c2cc[nH]n2)c1 [ASCIMINIB]	0.957	0.987	0.994	0.979	0.983	0.969	0.94	0.989	0.996	0.987	0.997	0.975	0.962	1	0.965	0.947	0.985
CN1CCN(c2ccc(C(=O)Nc3n[nH]c4ccc(Cc5cc(F)cc(F)c5)cc34)c(NC3CCOCC3)c2)CC1 [ENTRECTINIB]	0.928	0.927	0.888	0.87	0.901	0.957	0.868	0.904	0.957	0.885	0.893	0.933	0.973	0.924	0.88	0.944	0.915
Cn1cc(C2=C(c3cn(C4CCN(Cc5ccccn5)CC4)c4ccccc34)C(=O)NC2=O)c2ccccc21 [ENZASTAURIN]	0.953	0.961	0.995	0.986	0.978	1	0.965	1	1	0.961	0.973	0.988	0.992	0.943	1	0.979	0.995
N#CC1(c2ccc(NC(=O)c3cccnc3NCc3ccncc3)cc2)CCCC1 [APATINIB]	0.982	0.987	0.996	0.988	0.966	0.991	0.893	0.956	1	0.998	0.98	0.972	0.968	0.965	0.98	0.821	0.942
CC(C)NC[C@@H](C(=O)N1CCN(c2ncnc3c2[C@H](C)C[C@H]3O)CC1)c1ccc(Cl)cc1 [IPATASERTIB]	0.885	0.848	0.898	0.851	0.921	0.969	0.791	0.836	0.769	0.916	0.805	0.781	0.954	0.891	0.848	0.843	0.817
CC1(COc2ccc3c(c2)ncn3-c2ccc3cccc(N4CCC(N)CC4)c3n2)COC1 [CRENOLANIB]	0.931	0.969	0.942	0.823	0.887	0.93	0.804	0.956	0.891	0.853	0.93	0.903	0.886	0.917	0.898	0.653	0.994
O=C(Nc1nc2cccc(-c3ccc(CN4CCS(=O)(=O)CC4)cc3)n2n1)C1CC1 [FILGOTINIB]	0.987	0.994	0.985	0.981	0.991	0.991	0.892	0.993	0.96	0.993	0.979	0.987	0.991	0.949	0.998	0.985	0.906
CC(C)(C)c1nc(-c2cccc(NS(=O)(=O)c3c(F)cccc3F)c2F)c(-c2ccnc(N)n2)s1 [DABRAFENIB]	0.779	0.97	0.941	0.812	0.96	0.924	0.946	0.921	0.876	0.723	0.586	0.866	0.863	0.925	0.854	0.881	0.853
O=S(=O)(c1cccc2cnccc12)N1CCCNCC1 [FASUDIL]	0.986	0.978	1	1	0.982	0.997	0.997	1	0.996	0.991	0.992	0.993	0.994	0.981	1	0.981	0.982
CO[C@H]1C[C@@H]2CC[C@@H](C)[C@@](O)(O2)C(=O)C(=O)N2CCCC[C@H]2C(=O)O[C@H]([C@H](C)C[C@@H]2CC[C@@H](OCCO)[C@H](OC)C2)CC(=O)[C@H](C)/C=C(\C)[C@@H](O)[C@@H](OC)C(=O)[C@H](C)C[C@H](C)/C=C/C=C/C=C/1C [CERTICAN]	0.645	0.841	0.765	0.684	0.819	0.962	0.885	0.849	0.604	0.728	0.688	0.548	0.971	0.835	0.76	0.633	0.926
C[C@]12O[C@H](C[C@]1(O)CO)n1c3ccccc3c3c4c(c5c6ccccc6n2c5c31)CNC4=O [LESTAURTINIB]	0.721	0.805	0.821	0.526	0.72	0.802	0.656	0.821	0.667	0.614	0.655	0.64	0.762	0.764	0.62	0.646	0.762
Cc1[nH]c(/C=C2\C(=O)Nc3ccc(F)cc32)c(C)c1C(=O)NCCN1CCCC1 [TOCERANIB]	0.891	0.937	0.957	0.795	0.841	0.908	0.632	0.923	0.918	0.833	0.864	0.82	0.931	0.926	0.778	0.669	0.739
CC(C)(O)CNc1nc(Nc2ccnc(C(F)(F)F)c2)nc(-c2cccc(C(F)(F)F)n2)n1 [ENASIDENIB]	0.998	0.973	0.984	0.945	0.995	0.999	0.958	0.992	0.991	1	0.998	0.99	0.981	0.99	0.992	0.972	0.997
